Ends that are not written are not given here. PEG = not defined here
Key:
N-cadherin = N-cadherin expression in SK-HEP-1 cells (ELISA); type: cell-based, human; details: SK-HEP-1, 10 μM, 24 hours, control group 1.12 ± 0.03
Procedure: (§1) SK-HEP-1 cells were cultured in vitro, cells in the logarithmic growth phase were collected, and the cells were seeded evenly in a 24-well plate at a density of 1-3×10^5 cells/well. The cells were cultured in a cell incubator for 4-5 h. PBS was added to the control group. PBS containing polypeptide or derivative thereof (N1-N12) was added to the treatment group. The final concentration of the polypeptide or derivative thereof in the well was 10 μM. After incubating for 24 hours, the cells were collected and the total protein was extracted. ELISA was used to detect the content of fibronectin in total protein.
The experimental method for testing the inhibition on the expression of N-cadherin in human liver adenocarcinoma cells (SK-HEP-1) by the polypeptide or derivative thereof (N1-N12) was as described in Example 19.

fibronectin = fibronectin expression in SK-HEP-1 cells (ELISA); type: cell-based, human; details: SK-HEP-1, 10 μM, 24 hours, control group 1.62 ± 0.09
Procedure: as §1

[1] = effect on coagulation function in mice (ACT); type: in vivo, C57BL/6J mice; details: 200 mg/kg tail vein once a day until Day 24, blood on Day 25; control group 73.50 ± 7.15
Procedure: C57BL/6J mice were used as experimental subjects (purchased from Chengdu Dashuo Experimental Animal Co., Ltd., male, weighing 16-17 g). Sterile saline or peptide drugs were injected via the tail vein once a day until Day 24. The mice in the control group were injected with sterile saline, and the mice in the administration groups (N1-N12) were injected with polypeptide drugs (200 mg/kg). There were three experimental animals in each group. On Day 25, the eyeballs were removed and blood ([…]) was taken. The coagulation function of the mice was detected by the Abbott i-STAT blood gas analyzer with the ACT test card.

[2] = test system: human pancreatic cancer cells (PANC-1) subcutaneous xenograft; test: pancreatic cancer subcutaneous xenograft animal model, intratumoral injection; type: in vivo, mice (BALB/c-nu/nu); details: PANC-1 xenograft, intratumoral 5 mg/kg once every other day, 25 days; for Weight of tumor (g) (mean ± SD): control 1.2 ± 0.11; for Volume of tumor (mm^3) (mean ± SD): control 1431.72 ± 174.33
Procedure: (§2) Experimental animals: 4-6 weeks old female immunodeficiency mice (BALB/c-nu/nu, Beijing Vital River Laboratory Animal Technology Co., Ltd.).
(§3) Subcutaneous xenograft animal model. The number of cells inoculated subcutaneously vin mice was about 2×10^6/200 μL. When the volume of the subcutaneous tumor was greater than 100 mm^3, the mice were randomly divided into groups and subjected to treatment. When the mass volume of the tumors in model control group reached 2000 mm^3 or the animal dies, the treatment ended. The animals were dissected, the tumors were taken out, and the weight and volume of the tumors were measured. During the period of the entire experiment, the mice were observed and the body weight was measured every other day.
The method used in the efficacy test on the pancreatic cancer subcutaneous xenograft animal model was as described in Example 5. The pancreatic cancer cells were human pancreatic cancer cells (PANC-1), and the route of administration was intratumoral injection. The experimental groups were model control group and polypeptide or derivative thereof treatment groups (N1-N12). The drug dosage of the N1-N12 treatment group was 5mg/kg, once every other day, and the treatment time was 25 days.

[3] = test system: human lung cancer cells (A549) subcutaneous xenograft; test: lung cancer subcutaneous xenograft animal model, intratumoral injection; type: in vivo, mice (BALB/c-nu/nu); details: intratumoral 5 mg/kg once every other day, 10 days; for Weight of tumor (g) (mean ± SD): control 1.45 ± 0.15; for Volume of tumor (mm^3) (mean ± SD): control 1269.32 ± 115.39
Procedure: as §2, §3
The method used for the drug efficacy test in the animal model of the subcutaneous xenograft derived from lung cancer cells was as described in Example 5. The tumor cells were human lung cancer cells (A549), and the route of administration was intratumoral injection. There were two groups: the model control group and the polypeptide or its derivative treatment group (N1-N12). The drug dosage of the treatment group was 5 mg/kg, once every other day and the treatment time was 10 days.
The procedure of the efficacy test in this example, route and dosage of administration were the same as in Example 9. The peptides used in the experiment were N13-N32. The treatment time was 20 days.

vimentin = vimentin expression in SK-HEP-1 cells (ELISA); type: cell-based, human; details: SK-HEP-1, 10 μM, 24 hours, control group 1.2 ± 0.01
Procedure: as §1
The experimental method for testing the inhibition on the expression of vimentin in human liver adenocarcinoma cells (SK-HEP-1) by the polypeptide or derivative thereof (N1-N12) was as described in Example 19.

Substance | Relative protein level (mean ± SD, P), N-cadherin (N-cadherin) | Relative protein level (mean ± SD, P), fibronectin (fibronectin) | Activated clotting time (s) (mean ± SD) [1] | Weight of tumor (g) (mean ± SD) [2] | Volume of tumor (mm^3) (mean ± SD) [2] | Weight of tumor (g) (mean ± SD) [3] | Volume of tumor (mm^3) (mean ± SD) [3] | Relative protein level (mean ± SD, P), vimentin (vimentin)
N9: SEQ ID NO: 1 with deletion of positions 15-18 and PEG modification at the amino terminal ({PEG}-YRVRFLAKENVTQD; reading uncertain) | 0.73 ± 0.04,*** | 1.33 ± 0.09,* | 72.09 ± 8.07 s | 0.5 ± 0.09 g | 765.6 ± 105.04 mm^3 | 0.72 ± 0.09 g | 781.14 ± 123.66 mm^3 | 1.03 ± 0.05, **
N6: SEQ ID NO: 1 with deletion of four amino acids at the carboxyl terminal (positions 15-18) (YRVRFLAKENVTQD) | 0.83 ± 0.04,*** | 1.33 ± 0.04,** | 74.09 ± 8.51 s | 0.61 ± 0.07 g | 538.26 ± 121.04 mm^3 | 0.79 ± 0.18 g | 769.35 ± 155.34 mm^3 | 0.81 ± 0.03, ****
N4: SEQ ID NO: 1 with deletion of positions 15-18 and positions 1-3 (RFLAKENVTQD) | 0.93 ± 0.04,** | 1.23 ± 0.11,** | 73.64 ± 8.12 s | 0.62 ± 0.07 g | 673.03 ± 157.33 mm^3 | 0.63 ± 0.12 g | 740.79 ± 140.87 mm^3 | 0.95 ± 0.03, ***
